Results as given in ChEMBL document CHEMBL4177634, “6-Substituted quinolines as RORγt inverse agonists” (Bioorg Med Chem Lett, 2017).

Biological target: T1, Nuclear receptor ROR-gamma (Homo sapiens, UniProt P51449)
T1 sequence (P51449 whole entry): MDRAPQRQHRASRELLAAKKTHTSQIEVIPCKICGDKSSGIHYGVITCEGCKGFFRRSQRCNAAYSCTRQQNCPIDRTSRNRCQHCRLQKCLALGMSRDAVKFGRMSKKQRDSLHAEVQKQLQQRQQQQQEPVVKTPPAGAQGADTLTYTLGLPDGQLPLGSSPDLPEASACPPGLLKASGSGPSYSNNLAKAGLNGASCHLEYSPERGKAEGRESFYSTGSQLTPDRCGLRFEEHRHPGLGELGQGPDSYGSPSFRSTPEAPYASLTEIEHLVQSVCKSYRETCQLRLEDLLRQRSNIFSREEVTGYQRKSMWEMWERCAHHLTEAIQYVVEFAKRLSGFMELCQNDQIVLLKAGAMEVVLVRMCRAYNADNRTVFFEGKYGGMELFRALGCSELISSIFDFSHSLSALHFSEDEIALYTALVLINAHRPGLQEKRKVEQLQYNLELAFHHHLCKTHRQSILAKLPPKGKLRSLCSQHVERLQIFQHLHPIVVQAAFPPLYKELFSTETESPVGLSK
Test: Displacement of 1,8-ANS from human N-terminal His-tagged RORgammat LBD ([…]) expressed in Escherichia coli by thermofluor assay

- Kd: 3.6 nM
Compound: COc1nc2ccc(C(O)(c3ccccc3)C3CCN(C(C)=O)CC3)cc2c(Cl)c1Cc1ccc(-n2cccn2)cc1 (stereo in doubt; 25a)
